This note sets out measurements from ChEMBL document CHEMBL6071130, “A comprehensive review of small molecule drugs approved by the FDA in 2023: Advances and prospects” (Eur J Med Chem, 2024).

Series [1] has as its target Gamma-secretase.
Description: Inhibition of Gamma-secretase (unknown origin)
Series [2] is described as follows: Half life in mouse. The series is classed as ADME, organism-based. To be noted: in vivo.
The nature of series [3]: in vivo. To be noted: mouse, po.
Description: Oral bioavailability in mouse

As a reminder, the IC50 is the concentration at which inhibition is half-maximal. A lower IC50 goes with inhibition by little substance. Regarding `C[C@H](NC(=O)Cc1cc(F)cc(F)c1)C(=O)N[C@H](C(=O)OC(C)(C)C)c1ccccc1`, in series [1], inhibition was half-maximal at 0.02 µM (IC50).

As a reminder, the half-life is the time needed for the level to fall by half in the phase considered. The low end stands for rapid decline, the high end for slow decline. The term bioavailability denotes the share of a dose that reaches the circulation, judged against a reference dose that is usually intravenous. `CCO[C@H]1CCN(Cc2c(OC)cc(C)c3[nH]ccc23)[C@H](c2ccc(C(=O)O)cc2)C1` [IPTACOPAN]: the half-life in series [2] was 7 h. The same compound registered a bioavailability in series [3] of 60%.
